Common to all, as to format: cell-based, mice
For assay [1], the system named is differentiated 3T3-L1 cells. Put plainly: Fluorescence assay of glycerol released, Protocol 1 (without epinephrine). Particulars: for Release of glycerol: summary. The protocol: (§1) The effects on the release of glycerol were tested in the presence of all the test products and using a fluorescence assay method. Glycerol was then assayed with regard to certain selected products using a calorimetric method and in the presence or the absence of HgCl2.
(§2) The cells used were mice preadipocytes of the 3T3-L1 line (40 000 cells/well).
(§3) The cells were cultured until confluency in a growth medium, with a change in medium every 2-3 days (24-well plates). • Growth medium: • DMEM (Life Technologies 21969035) L-glutamine, 2 mM (Life Technologies 25030024) • Penicillin 50 IU/ml streptomycin 50 μg/ml (Life Technologies 15070063) • Amphotericin B, 0.25 μg/ml (Sigma A2942) • Foetal calf serum, 10% v/v (Life Technologies 10106151).
(§4) At high confluency, the cells were transferred into a differentiation medium for 2×48 hours. • Differentiation medium: • DMEM (Life Technologies 21969035) • L-glutamine, 2 mM (Life Technologies 25030024) • Penicillin 50 IU/ml streptomycin 50 μg/ml (Life Technologies 15070063) • Foetal calf serum, 10% v/v (Life Technologies 10106151), • Isobutylmethylxanthine, 0.5 mM (IBMX, Sigma 17018) • Insulin, 5 μg/ml (Sigma 11882) • Dexamethasone, 1 μM (Sigma D1756)
After differentiation, the cells were transferred into DMEM medium+insulin (5 μg/ml final) for 72 hours and then into growth medium (DMEM/10% serum).
The differentiated cells were placed in test medium (MEM 100% (v/v), bicarbonate 1.87 mg/ml, glutamine 2 mM, delipidated bovine serum albumin 0.5% (w/v), penicillin/streptomycin 25 IU/ml/25 μg/ml) and were then treated with the test products or the references. After incubating at 37° C. for 1 h and 5% CO2, the culture supernatants were removed in order to assay the glycerol released.
The glycerol released into the culture medium was with a determined content of directly by measuring the fluorescence of the NADH produced in the following reaction sequence (according to Wieland). [drawing 1] Autofluorescence and quenching (absorption of the fluorescence) controls were carried out in order to determine possible interference of the products in this assay.

The subject of assay [2] is Aquaporin adipose (AQPap) messenger. Put plainly: Relative expression of AQPap messenger by RT-Q-PCR in differentiated 3T3-L1 cells. Conditions: for RE*AQP7 / AQP7/Actin % Control: 6 h; for RE*AQP7: n=2; for AQP7/Actin % Control: differentiated control = 100; for mRNA stimulation: summary. The protocol:
The test was carried out on differentiated 3T3-L1 cells obtained as described in Example 1.
The differentiated cells were placed beforehand in test medium for 24 hours and were then treated with the test products or the references. After incubating for 6 h at 37° C. and 5% CO2, the culture supernatants were removed, the cells were rinsed with a PBS solution and the cell layers were placed in Tri-Reagent (Sigma T9424) and then immediately frozen at −80° C.
The expression of the markers selected was evaluated by RT-Q-PCR with regard to the messenger RNAs extracted from the cells corresponding to each treatment.
The marker β-actin (M12481) was used as reference marker.
The operational stages are as follows: • Extraction of the total RNAs using Tri-Reagent according to the protocol recommended by the supplier. Then further extraction with chloroform and precipitation with isopropanol. • Removal of the traces of potentially contaminating DNA by treatment with the DNA-free system (Ambion). After monitoring the quality of the RNAs obtained, the three samples corresponding to each treatment were pooled. • Carrying out the reverse transcription reaction on the mRNA in the presence of the oligo(dT) primer and of the Superscript II (Gibco) enzyme. • Quantification by fluorescence of the synthesized cDNA and adjustment of the concentrations to 50 ng/μl. Further quantification of each cDNA, after final dilution, is carried out before the PCR reaction.
The PCR (polymerase chain reactions) reactions were carried out by quantitative PCR with the “Light Cycler” system (Roche Molecular Systems Inc.) and according to the procedures recommended by the supplier.
The incorporation of fluorescence into the amplified DNA is carried out continuously during the PCR cycles. This system makes it possible to obtain curves of measurement of the fluorescence as a function of the PCR cycles and to thus evaluate a value of relative expression for each marker.
The number of cycles is determined from the “exit” points of the fluorescence curves. For the same marker analysed, the later the sample exits (high cycle number), the lower the initial number of mRNA copies.
The RE (relative expression) value is expressed in arbitrary units according to the following formula: (1/2^number of cycles)×10^6
Results: Effects of the various treatments on the relative expression of the Aquaporin adipose (AQPap) messenger. Results with respect to the amount of actin messenger (reference gene).
RE=Relative Expression, expressed in arbitrary units (AU), n=2.

The subject of assay [3] is differentiated 3T3-L1 cells. Description: Colorimetric assay of glycerol released, Protocol 1. Particulars: Protocol 1, 40 μM. The protocol:
as §1, §2, §3, §4
After differentiation, the cells were transferred into DMEM medium+insulin (5 μg/ml final) for 72 hours and then into growth medium (DMEM/10% serum). […]

The subject of assay [4] is differentiated 3T3-L1 cells. Put plainly: Fluorescence assay of glycerol released, HgCl2 protocol (Protocol 3). Particulars: 10 mM. The protocol:
The majority of mammalian aquaporins are inhibited by mercury and its salts, whereas chemical inhibitors of diffusion are unknown (P. Agre et al., J. of Physiology, 2002, 542.1). The cells used were mice preadipocytes of the 3T3-L1 line (40 000 cells/well). The cells were cultured until confluency in a growth medium, with a change in medium every 2-3 days (24-well plates). • Growth medium: • DMEM (Life Technologies 21969035) L-glutamine, 2 mM (Life Technologies 25030024) • Penicillin 50 IU/ml streptomycin 50 μg/ml (Life Technologies 15070063) • Amphotericin B, 0.25 μg/ml (Sigma A2942) • Foetal calf serum, 10% v/v (Life Technologies 10106151). […] After differentiation, the cells were transferred into DMEM medium+insulin (5 μg/ml final) for 72 hours and then into growth medium (DMEM/10% serum). […] The differentiated cells were placed in test medium for 24 h. The cells were subsequently placed in PBS buffer comprising or not comprising HgCl2 (30 μM final) for 5 minutes at 37° C. After treatment with HgCl2, the cells were washed twice in PBS and then placed in test medium comprising or not comprising the test products. The culture supernatants were subsequently removed in order to assay the glycerol released.

Where [5] appears, read: Protocol 1 (Caophenol table), 40 μM.

With `CCCCCCCCCCC#CCSCC(=O)O` [(Tridec-2-ynylthio)acetic acid], the Release of glycerol entry in assay [1] (0.16-4.0 μg/ml) is on record as “No”. Besides, the “RE*AQP7” value in assay [2] (0.00032 mg/ml) worked out at 0.912 AU; in assay [2] (0.0016 mg/ml), 0.872 AU; in assay [2] (0.008 mg/ml), 0.032 AU. Moreover, the figures for the “AQP7/Actin % Control” value in assay [2] (0.00032 mg/ml), in assay [2] (0.0016 mg/ml) and in assay [2] (0.008 mg/ml) were 130%, 105% and 174%, respectively. The mRNA stimulation entry in assay [2] (0.16-4.0 μg/ml) was “Yes”.
In the case of `CNC[C@H](O)c1ccc(O)c(O)c1` [Epinephrine], the “% Control” value turned out to be 795% in assay [3]; 327% in assay [1] (setting [5]); 352% in assay [1] (Protocol 1, 40 μM, 1 h). Besides, the Glycerol in assay [3] was 449.74 µM; in assay [1] (setting [5]) it was 101.85 µM; in assay [1] (Protocol 1, 40 μM, 1 h), 117.57 µM; in assay [1] (differentiated preadipocytes, epinephrine 40 μM), 149.5 µM. Besides, the “% theory, taking into account the quenching control” value in assay [1] (setting [5]) turned out to be 327%. For the same compound, the Δ% in assay [1] (differentiated preadipocytes, epinephrine 40 μM, unstimulated differentiated = 100) is reported as 383%.
In the case of `CCCCCCCCSCC#CCSCC(=O)O` [{[4-(Octylthio)but-2-ynyl]thio}acetic acid], the Release of glycerol result in assay [1] (0.32-8.0 μg/ml) is recorded as “No”. Moreover, the “RE*AQP7” value in assay [2] (0.00016 mg/ml) stood at 0.023 AU; in assay [2] (0.0008 mg/ml), 0.022 AU; in assay [2] (0.004 mg/ml) it was 0.020 AU. The “AQP7/Actin % Control” value is reported as 128% in assay [2] (0.00016 mg/ml), 153% in assay [2] (0.0008 mg/ml) and 167% in assay [2] (0.004 mg/ml). The mRNA stimulation entry in assay [2] (0.32-8.0 μg/ml) is listed as “Yes”.
On to `OCCS` [β-Mercaptol], for which, in assay [4], the “% theory, taking into account the quenching control” value is given as 155% and the Glycerol worked out at 135.74 µM. Moreover, the “% Control” value in assay [4] (HgCl2 control = 100) was 155%.
Consider Aescin, for which the “RE*AQP7” value in assay [2] (0.000128 mg/ml) is 0.034 AU; in assay [2] (0.00064 mg/ml) it was 0.039 AU; in assay [2] (0.0032 mg/ml), 0.043 AU. In addition, the figures for the “AQP7/Actin % Control” value in assay [2] (0.000128 mg/ml), in assay [2] (0.00064 mg/ml) and in assay [2] (0.0032 mg/ml) were 134%, 168% and 164%, respectively. Besides, the mRNA stimulation result in assay [2] (0.128-3.2 μg/ml) was “Yes”.

For the origin of these results see US20050186290A1, “Use of aquaglyceroporin modulators as slimming agent” (L'OREAL, priority 2003, published 2005).
